# Laboratory results taken from patent publication US10077247B2, “Tricyclic spiro compound” (ONO PHARMACEUTICAL CO., LTD., priority 2015, dated 2018).
# Experiments:
# [1] = molecular target: rat EP4 receptor (Rattus norvegicus (Rat), UniProt P43114); test: EP4 antagonistic activity measurement using prostanoid receptor subtype expressing cells (cAMP); type: cell-based; conditions: CHO cells expressing rat EP4 receptor; inhibition of cAMP production by PGE2 10 nM
# Protocol: CHO cells expressing rat EP4 receptor subtypes were prepared according to the methods of Nishigaki et al. (FEBS Letters, Vol. 364, p. 339-341, 1995), and used for experiment. Cultured subconfluent cells were detached, and suspended in an assay medium (MEM containing 1 mmol/L IBMX, 1% HSA) in a concentration of 1×10^6 cells/mL. For reaction, PGE2 was added to the cell suspension (25 μL) in a final concentration of 10 nmol/L, either alone or as a 25-μL PGE2 solution containing the test compound. After 30 minutes of reaction at room temperature, the amount of cAMP in the cells was quantified according to the method in the descriptions of the cAMP assay kit (CISBIO).
# The antagonistic effect (IC50 value) of the test compound was calculated as a value that represents an inhibition rate against a reaction with PGE2 alone at 10 nM, a concentration that produces a submaximal cAMP producing effect.
# [2] = tested on: mouse colorectal cancer cell line CT26; test: Anti-tumor effect in allograft model of mouse colorectal cancer cell line CT26; type: in vivo; conditions: 10 mg/kg orally, twice a day, Balb/C mouse, 21 days from transplant
# Protocol: The anti-tumor effect of the present compound was evaluated in an allograft model of the mouse colorectal cancer cell line CT26. CT26 was cultured in a CO2 incubator, using an RPMI-1640 medium containing 10 vol % inactivated fetal bovine serum (FBS), 100 units/mL of penicillin, and 100 µg/mL of streptomycin. On the day of transplant, CT26 was harvested after removing the culture supernatant, and washing the cells with phosphate buffer (hereinafter, “PBS”). The harvested CT26 cells were suspended in Hank's buffer to obtain transplant cells. The transplant cells (3×10^5) were then subcutaneously transplanted to the right back of a female Balb/C mouse (Charles River Laboratories Japan Inc.) under anesthesia. The present compound was orally administered in a dose of 10 mg/kg, once on the day of transplant, and twice a day from the next day. For the control group, distilled water was administered for the same duration as in the present compound-administered group. The tumor volume (mm^3) was determined by calculating a relative tumor volume from the measured tumor lengths along the minor axis and major axis using a digital caliper, according to the following formulae 1 and 2. Tumor volume=[(minor axis)^2×major axis]/2 Relative tumor volume=medium value of tumor volumes of each group after 21 days from transplant/medium value of tumor volume of control group after 21 days from transplant
# [3] = Pharmacokinetics test (hepatic microsome stability test); conditions: human hepatic microsome 1 mg/mL, 37° C., 60 min, 1 μmol/L
# Sequence of rat EP4 receptor (P43114 whole entry): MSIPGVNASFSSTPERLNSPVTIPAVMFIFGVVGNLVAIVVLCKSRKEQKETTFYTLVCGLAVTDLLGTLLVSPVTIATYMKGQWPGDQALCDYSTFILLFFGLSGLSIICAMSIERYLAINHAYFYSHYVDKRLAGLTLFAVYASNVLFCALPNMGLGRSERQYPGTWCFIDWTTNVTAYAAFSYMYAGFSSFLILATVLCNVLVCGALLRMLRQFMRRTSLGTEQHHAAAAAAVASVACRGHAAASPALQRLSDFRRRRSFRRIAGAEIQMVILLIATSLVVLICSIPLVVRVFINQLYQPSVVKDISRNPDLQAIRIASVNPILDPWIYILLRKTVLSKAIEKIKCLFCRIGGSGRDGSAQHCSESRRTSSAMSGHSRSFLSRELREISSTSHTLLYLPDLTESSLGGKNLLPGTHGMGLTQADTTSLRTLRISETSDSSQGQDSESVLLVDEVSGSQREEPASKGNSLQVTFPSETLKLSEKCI
SMILES,IC50 [1],"tumor growth inhibitory effect (relative tumor volume, FIG. 1) [2]",Remaining rate (%) [3]
"COCCNC(=O)c1ccc2c(c1)[C@]1(CCO2)C[C@H]1C(=O)Nc1cc(C#N)ccc1CCCC(=O)O [Example 2-2, 4-{4-Cyano-2-[({(2′R,4S)-6-[(2-methoxyethyl)carbamoyl]-2,3-dihydrospiro[chromene-4,1′-cyclopropan]-2′-yl}carbonyl)amino]phenyl}butanoic acid]",5.3 nM,tumor growth inhibitory effect,97%
"CC(C)NC(=O)c1ccc2c(c1)[C@]1(CCO2)C[C@H]1C(=O)Nc1cc(C#N)ccc1CCCC(=O)O [Example 2-13, 4-[4-Cyano-2-({[(2′R,4S)-6-(isopropylcarbamoyl)-2,3-dihydrospiro[chromene-4,1′-cyclopropan]-2′-yl]carbonyl}amino)phenyl]butanoic acid]",7.8 nM,tumor growth inhibitory effect,100%
"COCCNC(=O)c1ccc2c(c1)[C@]1(CO2)C[C@H]1C(=O)Nc1cc(C#N)ccc1CCCC(=O)O [Example 37-2, 4-{4-Cyano-2-[({(2′R,3S)-5-[(2-methoxyethyl)carbamoyl]spiro[1-benzofuran-3,1′-cyclopropan]-2′-yl}carbonyl)amino]phenyl}butanoic acid]",6.2 nM,,87%
"COCCNC(=O)c1ccc2c(c1)[C@@]1(C[C@H]1C(=O)Nc1cc(C#N)ccc1CCCC(=O)O)CC2(C)C [Example 38-1, 4-[4-Cyano-2-({[(1S,2R)-6′-[(2-methoxyethyl)carbamoyl]-3′,3′-dimethyl-2′,3′-dihydrospiro[cyclopropane-1, 1′-inden]-2-yl]carbonyl}amino)phenyl]butanoic acid]",5.4 nM,,69%
"CNC(=O)c1ccc2c(c1)[C@@]1(C[C@H]1C(=O)Nc1cc(C#N)ccc1CCCC(=O)O)CC2(C)C [Example 38-2, 4-[4-Cyano-2-({[(1S,2R)-3′,3′-dimethyl-6′-(methylcarbamoyl)-2′,3′-dihydrospiro[cyclopropane-1, 1′-inden]-2-yl]carbonyl}amino)phenyl]butanoic acid]",4.3 nM,,89%
"CC1(C)C[C@]2(C[C@H]2C(=O)Nc2cc(C#N)ccc2CCCC(=O)O)c2cc(-c3cccnc3)ccc21 [Example 39, 4-[4-Cyano-2-({[(1S,2R)-3′,3′-dimethyl-6′-(3-pyridinyl)-2′,3′-dihydrospiro[cyclopropane-1,1′-inden]-2-yl]carbonyl}amino)phenyl]butanoic acid]",5.7 nM,,78%
